In PubChem BioAssay (NCI):
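Method: 48-hour compound exposure of cells in 96-well plates, five concentrations, linear interpolation of endpoints. Abbreviation: GI50, concentration required for 50% inhibition of growth. TGI: concentration producing complete growth inhibition.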

Experiments:
Experiment in all cases: NCI anticancer screen, dose series, 48 h
PC-3 prostate = tested on: PC-3 prostate
LOX IMVI melanoma = tested on: LOX IMVI melanoma
SNB-75 CNS = tested on: SNB-75 CNS
HCT-116 colon = tested on: HCT-116 colon
DU-145 prostate = tested on: DU-145 prostate
EKVX NSCLC = tested on: EKVX NSCLC
OVCAR-4 ovarian = tested on: OVCAR-4 ovarian
RPMI-8226 leukemia = tested on: RPMI-8226 leukemia
TK-10 renal = tested on: TK-10 renal
UACC-257 melanoma = tested on: UACC-257 melanoma
SR leukemia = tested on: SR leukemia
UO-31 renal = tested on: UO-31 renal
MOLT-4 leukemia = tested on: MOLT-4 leukemia
HCC-2998 colon = tested on: HCC-2998 colon
SN12C renal = tested on: SN12C renal
OVCAR-5 ovarian = tested on: OVCAR-5 ovarian
HOP-62 NSCLC = tested on: HOP-62 NSCLC
NCI-H23 lung = tested on: NCI-H23 lung
K-562 leukemia = tested on: K-562 leukemia
SK-MEL-5 melanoma = tested on: SK-MEL-5 melanoma
786-0 renal = tested on: 786-0 renal
MDA-MB-435 = tested on: MDA-MB-435
HOP-92 NSCLC = tested on: HOP-92 NSCLC
KM12 colon = tested on: KM12 colon
COLO 205 colon = tested on: COLO 205 colon
NCI-H226 lung = tested on: NCI-H226 lung
MALME-3M melanoma = tested on: MALME-3M melanoma
RXF 393 renal = tested on: RXF 393 renal
HCT-15 colon = tested on: HCT-15 colon
UACC-62 melanoma = tested on: UACC-62 melanoma
NCI-H460 lung = tested on: NCI-H460 lung
SK-MEL-2 melanoma = tested on: SK-MEL-2 melanoma
HL-60(TB) leukemia = tested on: HL-60(TB) leukemia
A498 renal = tested on: A498 renal
SNB-19 CNS = tested on: SNB-19 CNS
SF-268 CNS = tested on: SF-268 CNS
HS 578T breast = tested on: HS 578T breast
A549 NSCLC = tested on: A549 NSCLC
SF-295 CNS = tested on: SF-295 CNS
MDA-MB-231 breast = tested on: MDA-MB-231 breast
SK-OV-3 ovarian = tested on: SK-OV-3 ovarian
HT29 colon = tested on: HT29 colon
SF-539 CNS = tested on: SF-539 CNS
CCRF-CEM leukemia = tested on: CCRF-CEM leukemia
SW-620 colon = tested on: SW-620 colon
CAKI-1 renal = tested on: CAKI-1 renal
IGROV1 ovarian = tested on: IGROV1 ovarian
M14 melanoma = tested on: M14 melanoma
NCI/ADR-RES ovarian = tested on: NCI/ADR-RES ovarian
MCF7 breast = tested on: MCF7 breast
BT-549 breast = tested on: BT-549 breast
OVCAR-3 ovarian = tested on: OVCAR-3 ovarian
SK-MEL-28 melanoma = tested on: SK-MEL-28 melanoma
U251 CNS = tested on: U251 CNS
ACHN renal = tested on: ACHN renal
OVCAR-8 ovarian = tested on: OVCAR-8 ovarian
NCI-H522 lung = tested on: NCI-H522 lung
T-47D breast = tested on: T-47D breast

With CNCCC/C=C1\c2cc3c(cc2-c2c1c1cc(OC)c(OC)cc1c(=O)n2C)OCO3 the GI50 (PC-3 prostate) was 1.12 µM, the TGI (PC-3 prostate) was 10.6 µM and the GI50 (LOX IMVI melanoma) was 0.322 µM. It also gave a TGI (LOX IMVI melanoma) of 1.74 µM, a GI50 (SNB-75 CNS) of 1.26 µM and a TGI (SNB-75 CNS) of 11.9 µM. The GI50 (HCT-116 colon) was 0.399 µM, the TGI (HCT-116 colon) was 1.9 µM and the GI50 (DU-145 prostate) was 1.07 µM. For the same compound, the TGI (DU-145 prostate) was 5.5 µM, the GI50 (EKVX NSCLC) was 1.31 µM and the TGI (EKVX NSCLC) was 5.7 µM. It also gave a GI50 (OVCAR-4 ovarian) of 7.99 µM, a TGI (OVCAR-4 ovarian) of 44.3 µM and a GI50 (RPMI-8226 leukemia) of 1.24 µM. It also gave a TGI (RPMI-8226 leukemia) of 7.94 µM, a GI50 (TK-10 renal) of 1.83 µM and a TGI (TK-10 renal) of 9.83 µM. For the same compound, the GI50 (UACC-257 melanoma) was 3.09 µM, the TGI (UACC-257 melanoma) was > 100 µM and the GI50 (SR leukemia) was 0.211 µM. For the same compound, the TGI (SR leukemia) was 0.581 µM, the GI50 (UO-31 renal) was 0.75 µM and the GI50 (MOLT-4 leukemia) was 0.137 µM. It also gave a TGI (MOLT-4 leukemia) of 0.405 µM, a GI50 (HCC-2998 colon) of 0.226 µM and a TGI (HCC-2998 colon) of 2.47 µM. For the same compound, the GI50 (SN12C renal) was 0.858 µM, the TGI (SN12C renal) was 5.31 µM and the GI50 (OVCAR-5 ovarian) was 1.38 µM. It also gave a TGI (OVCAR-5 ovarian) of 8.89 µM, a GI50 (HOP-62 NSCLC) of 0.59 µM and a TGI (HOP-62 NSCLC) of 3.97 µM. It also gave a GI50 (NCI-H23 lung) of 1.07 µM, a TGI (NCI-H23 lung) of 5.31 µM and a GI50 (K-562 leukemia) of 0.493 µM. The TGI (K-562 leukemia) was 5.87 µM, the GI50 (SK-MEL-5 melanoma) was 0.435 µM and the TGI (SK-MEL-5 melanoma) was 1.69 µM. For the same compound, the GI50 (786-0 renal) was 0.259 µM, the TGI (786-0 renal) was 2.31 µM and the GI50 (MDA-MB-435) was 1.96 µM. The TGI (MDA-MB-435) was 13.4 µM, the GI50 (HOP-92 NSCLC) was 0.347 µM and the TGI (HOP-92 NSCLC) was 5.43 µM. For the same compound, the GI50 (KM12 colon) was 1.92 µM, the TGI (KM12 colon) was 18.1 µM and the GI50 (COLO 205 colon) was 1.13 µM. The GI50 (NCI-H226 lung) was 0.509 µM, the TGI (NCI-H226 lung) was 2.09 µM and the GI50 (MALME-3M melanoma) was 0.807 µM. The TGI (MALME-3M melanoma) was 5.98 µM, the GI50 (RXF 393 renal) was 0.105 µM and the TGI (RXF 393 renal) was 0.958 µM. The GI50 (HCT-15 colon) was 1.15 µM, the TGI (HCT-15 colon) was 6.77 µM and the GI50 (UACC-62 melanoma) was 0.248 µM. The TGI (UACC-62 melanoma) was 1.38 µM, the GI50 (NCI-H460 lung) was 0.331 µM and the GI50 (SK-MEL-2 melanoma) was 6.92 µM. For the same compound, the TGI (SK-MEL-2 melanoma) was > 42.4 µM, the GI50 (HL-60(TB) leukemia) was 2.22 µM and the TGI (HL-60(TB) leukemia) was 12 µM. For the same compound, the GI50 (A498 renal) was < 0.0327 µM, the TGI (A498 renal) was 0.341 µM and the GI50 (SNB-19 CNS) was 0.883 µM. For the same compound, the TGI (SNB-19 CNS) was 24.7 µM, the GI50 (SF-268 CNS) was 0.521 µM and the TGI (SF-268 CNS) was 10 µM. For the same compound, the GI50 (HS 578T breast) was 3.17 µM, the TGI (HS 578T breast) was 30.3 µM and the GI50 (A549 NSCLC) was 1.31 µM. The TGI (A549 NSCLC) was > 24.5 µM, the GI50 (SF-295 CNS) was 0.322 µM and the TGI (SF-295 CNS) was 2.27 µM. For the same compound, the GI50 (MDA-MB-231 breast) was 1.03 µM, the TGI (MDA-MB-231 breast) was 5.31 µM and the GI50 (SK-OV-3 ovarian) was 1.87 µM. The GI50 (HT29 colon) was 0.658 µM, the TGI (HT29 colon) was 12 µM and the GI50 (SF-539 CNS) was 0.144 µM. For the same compound, the TGI (SF-539 CNS) was 0.558 µM, the GI50 (CCRF-CEM leukemia) was 0.843 µM and the TGI (CCRF-CEM leukemia) was 10.9 µM. It also gave a GI50 (SW-620 colon) of 0.793 µM, a TGI (SW-620 colon) of 19.5 µM and a GI50 (CAKI-1 renal) of 0.269 µM. It also gave a TGI (CAKI-1 renal) of 1.48 µM, a GI50 (IGROV1 ovarian) of 0.487 µM and a GI50 (M14 melanoma) of 1.14 µM. The TGI (M14 melanoma) was 9.4 µM, the GI50 (NCI/ADR-RES ovarian) was 1.53 µM and the TGI (NCI/ADR-RES ovarian) was 10.3 µM. The GI50 (MCF7 breast) was 0.244 µM, the TGI (MCF7 breast) was 0.813 µM and the GI50 (BT-549 breast) was 0.455 µM. It also gave a TGI (BT-549 breast) of 4.33 µM, a GI50 (OVCAR-3 ovarian) of 0.985 µM and a TGI (OVCAR-3 ovarian) of 4.12 µM. It also gave a GI50 (SK-MEL-28 melanoma) of 1.4 µM, a TGI (SK-MEL-28 melanoma) of 7.99 µM and a GI50 (U251 CNS) of 0.305 µM. It also gave a TGI (U251 CNS) of 4.03 µM, a GI50 (ACHN renal) of 0.245 µM and a TGI (ACHN renal) of 1.04 µM. It also gave a GI50 (OVCAR-8 ovarian) of 2.46 µM, a TGI (OVCAR-8 ovarian) of 19.8 µM and a GI50 (NCI-H522 lung) of 0.611 µM.
NC(N)=N/N=C\c1c(-c2cccc([N+](=O)[O-])c2)nc2sc(Cl)cn12 was tested, and the TGI (LOX IMVI melanoma) was > 100 µM, the TGI (SR leukemia) was 3.07 µM and the TGI (UO-31 renal) was 3.32 µM. The TGI (MOLT-4 leukemia) was 4.53 µM, the TGI (HCC-2998 colon) was 4.92 µM and the TGI (OVCAR-5 ovarian) was > 100 µM. For the same compound, the TGI (NCI-H23 lung) was 5.69 µM, the TGI (K-562 leukemia) was > 100 µM and the TGI (SK-MEL-5 melanoma) was 78.2 µM. For the same compound, the TGI (786-0 renal) was > 100 µM, the TGI (NCI-H226 lung) was > 100 µM and the TGI (MALME-3M melanoma) was 5.04 µM. The TGI (HCT-15 colon) was > 100 µM, the TGI (UACC-62 melanoma) was > 100 µM and the TGI (A498 renal) was 62.7 µM. The TGI (T-47D breast) was 4.4 µM, the TGI (HS 578T breast) was > 100 µM and the TGI (IGROV1 ovarian) was 4.05 µM. The TGI (NCI/ADR-RES ovarian) was > 100 µM and the TGI (ACHN renal) was > 100 µM.
